# In patent US20130225591A1, “IMIDOTHIAZOLE KINASE INHIBITORS” (priority 2009, published 2013):
# Target: T1, CDK5-p25 kinase (Homo sapiens, UniProt Q00535)
# T1 construct: purchased Invitrogen PV4677
# Experiment: CDK5-p25 kinase enzymatic assay
# Type: biochemical
# Conditions: 50 nM-99 nM; 5 uM ATP, 0.3 nM CDK5-p25; read-out: IC50 potency, CDK5-p25 kinase enzymatic assay, 50 nM-99 nM
# Description: CDK5-p25 kinase (Invitrogen PV4677) enzymatic activity was measured using electrophoretic separation and fluorescent detection to monitor phosphorylation of a fluorescently labeled histone H1-derived peptide substrate, FL29 (5-FAM-GGGPATPKKAKKL-CONH2, Caliper #760429)
# First, 0.25 uL of serially diluted compound in DMSO at 100× concentration was transferred into each well of a 384-well polystyrene assay plate. To this was added 15 uL of a 1.67× enzyme solution (500 pM enzyme, 1 mM DTT (Sigma D9779), 1× reconstitution buffer with protease inhibitor (Caliper #700329 proprietary formulation)), followed by centrifugation for 1 min at 1000 rpm, and incubation for 5-15 min at room temperature to allow binding of compound to enzyme. To initiate the reaction, 10 uL of substrate/ATP mix (245 mM Hepes pH 7.5, 0.003% Brij 35, 0.004% Tween, 12.75 uM ATP, 3.75 uM FL29 peptide) were added to each well, followed by centrifugation at 1000 rpm for 1 min. The reaction was then incubated at room temperature for 30 min. Final assay conditions were: 0.3 nM CDK5-p25, 1.5 uM peptide, 5 uM ATP, 0.6 mM DTT, 1% DMSO, 98 mM HEPES pH 7.5.
# After incubation, reactions were quenched by the addition of 45 uL Caliper termination solution (Caliper proprietary formula), followed by centrifugation at 1000 rpm for 1 min. Extent of reaction (percentage conversion of substrate to phosphorylated product) was then measured using the Caliper EZ II reader. Dose-response curves were created by plotting the inhibition of enzyme activity (normalized relative to vehicle treated and no ATP control reactions) as a function of the log of compound concentration. The curve was analyzed using a four parameter logistical fit to calculate IC50 values.
# T1 sequence (Q00535 whole entry): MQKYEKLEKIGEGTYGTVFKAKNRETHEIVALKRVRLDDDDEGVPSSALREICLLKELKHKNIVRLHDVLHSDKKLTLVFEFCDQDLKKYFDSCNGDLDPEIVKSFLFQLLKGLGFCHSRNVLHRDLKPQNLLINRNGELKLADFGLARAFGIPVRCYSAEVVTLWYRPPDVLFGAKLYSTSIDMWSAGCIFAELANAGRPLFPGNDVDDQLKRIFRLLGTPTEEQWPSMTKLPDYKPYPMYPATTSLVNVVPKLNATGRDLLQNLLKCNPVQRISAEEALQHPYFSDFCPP
# T1 sequence (Q15078 99-307 partner limits assumed): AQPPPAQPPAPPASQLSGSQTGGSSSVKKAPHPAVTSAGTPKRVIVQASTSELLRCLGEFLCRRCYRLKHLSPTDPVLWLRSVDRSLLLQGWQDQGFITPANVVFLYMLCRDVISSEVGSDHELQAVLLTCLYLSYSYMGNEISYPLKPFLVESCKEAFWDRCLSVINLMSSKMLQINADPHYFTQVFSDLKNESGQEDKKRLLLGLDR
row,Structure (SMILES),IC50
1,"O=C(Nc1ncn2c(C(F)(F)F)csc12)C(O)c1ccc2ccccc2c1 (single isomer, unassigned) [Example 44, (R or S)-2-hydroxy-2-(2-naphthyl)-N-[3-(trifluoromethyl)imidazo[5,1-b][1,3]thiazol-7-yl]acetamide]",50 to 99 nM
2,"O=C(Nc1ncn2c(C(F)(F)F)csc12)C(Cl)c1ccc2ccccc2c1 (single isomer, unassigned) [Example 45, (R or S)-2-chloro-2-(2-naphthyl)-N-[3-(trifluoromethyl)imidazo[5,1-b][1,3]thiazol-7-yl]acetamide]",50 to 99 nM
3,"O=C(Cc1ccc(-c2ccncc2)cc1)Nc1ncn2c(C(F)(F)F)csc12 [Example 12, 2-(4-pyridin-4-ylphenyl)-N-[3-(trifluoromethyl)imidazo[5,1-b][1,3]thiazol-7-yl]acetamide]",50 to 99 nM
4,"O=C(Cc1ccc(N2CCCC2=O)cc1)Nc1ncn2c(C(F)(F)F)csc12 [Example 17, 2-[4-(2-oxopyrrolidin-1-yl)phenyl]-N-[3-(trifluoromethyl)imidazo[5,1-b][1,3]thiazol-7-yl]acetamide]",50 to 99 nM
5,"Cn1cc(-c2ccc(CC(=O)Nc3ncn4c(C(F)(F)F)csc34)cc2)cn1 [Example 20, 2-[4-(1-methyl-1H-pyrazol-4-yl)phenyl]-N-[3-(trifluoromethyl)imidazo[5,1-b][1,3]thiazol-7-yl]acetamide]",50 to 99 nM
6,"O=C(Cc1ccc(-n2ccnc2)cc1)Nc1ncn2c(C(F)(F)F)csc12 [Example 23, 2-[4-(1H-imidazol-1-yl)phenyl]-N-[3-(trifluoromethyl)imidazo[5,1-b][1,3]thiazol-7-yl]acetamide]",50 to 99 nM
7,"O=C(Cc1ccc(-c2ccnnc2)cc1)Nc1ncn2c(C(F)(F)F)csc12 [Example 26, 2-(4-pyridazin-4-ylphenyl)-N-[3-(trifluoromethyl)imidazo[5,1-b][1,3]thiazol-7-yl]acetamide]",50 to 99 nM
8,"NCc1ccc(CC(=O)Nc2ncn3c(C(F)(F)F)csc23)cc1 [Example 27, 2-[4-(aminomethyl)phenyl]-N-[3-(trifluoromethyl)imidazo[5,1-b][1,3]thiazol-7-yl]acetamide]",50 to 99 nM
9,"O=C(Cc1ccc2c(c1)OCO2)Nc1ncn2c(C(F)(F)F)csc12 [Example 30, 2-(1,3-benzodioxol-5-yl)-N-[3-(trifluoromethyl)imidazo[5,1-b][1,3]thiazol-7-yl]acetamide]",50 to 99 nM
10,"CN(C)c1ccc(CC(=O)Nc2ncn3c(C(F)(F)F)csc23)cc1 [Example 31, 2-[4-(dimethylamino)phenyl]-N-[3-(trifluoromethyl)imidazo[5,1-b][1,3]thiazol-7-yl]acetamide]",50 to 99 nM

# Same assay, conditions: 500 nM-3 μM; 5 uM ATP, 0.3 nM CDK5-p25; read-out: IC50 potency, CDK5-p25 kinase enzymatic assay, 500 nM-3 μM
row,Structure (SMILES),IC50
1,"O=C(Cc1cc2ccccc2cn1)Nc1ncn2c(C(F)(F)F)csc12 [Example 8, 2-isoquinolin-3-yl-N-[3-(trifluoromethyl)imidazo[5,1-b][1,3]thiazol-7-yl]acetamide]",500 to 3000 nM
2,"NC(C(=O)Nc1ncn2c(C(F)(F)F)csc12)c1ccc2ccccc2c1 (stereo not shown) [Example 15, 2-amino-2-(2-naphthyl)-N-[3-(trifluoromethyl)imidazo[5,1-b][1,3]thiazol-7-yl]acetamide]",500 to 3000 nM
3,"COc1ccc2cc(C(C)C(=O)Nc3ncn4c(C(F)(F)F)csc34)ccc2c1 (stereo not shown) [Example 18, 2-(6-methoxy-2-naphthyl)-N-[3-(trifluoromethyl)imidazo[5,1-b][1,3]thiazol-7-yl]propanamide]",500 to 3000 nM
4,"O=C(Cc1cn2cccnc2n1)Nc1ncn2c(C(F)(F)F)csc12 [Example 28, 2-imidazo[1,2-a]pyrimidin-2-yl-N-[3-(trifluoromethyl)imidazo[5,1-b][1,3]thiazol-7-yl]acetamide]",500 to 3000 nM

# Same assay, conditions: 5 uM ATP, 0.3 nM CDK5-p25; read-out: IC50 potency, CDK5-p25 kinase enzymatic assay, 100 nM-499 nM
row,Structure (SMILES),IC50
1,"COc1cccc(-c2ccc(CC(=O)Nc3ncn4c(C(F)(F)F)csc34)cc2)c1 [Example 10, 2-(3′-methoxybiphenyl-4-yl)-N-[3-(trifluoromethyl)imidazo[5,1-b][1,3]thiazol-7-yl]acetamide]",100 to 499 nM
2,"O=C(CC1CCOCC1)Nc1ncn2c(C(F)(F)F)csc12 [Example 21, 2-(tetrahydro-2H-pyran-4-yl)-N-[3-(trifluoromethyl)imidazo[5,1-b][1,3]thiazol-7-yl]acetamide]",100 to 499 nM
3,"Cc1cc(CC(=O)Nc2ncn3c(C(F)(F)F)csc23)on1 [Example 22, 2-(3-methylisoxazol-5-yl)-N-[3-(trifluoromethyl)imidazo[5,1-b][1,3]thiazol-7-yl]acetamide]",100 to 499 nM
4,"N[C@H]1CC[C@H](CC(=O)Nc2ncn3c(C(F)(F)F)csc23)CC1 [Example 25, 2-(trans-4-amino-cyclohexyl)-N-[3-(trifluoromethyl)imidazo[5,1-b][1,3]thiazol-7-yl]acetamide]",100 to 499 nM
5,"O=C(Cc1cn2ccccc2n1)Nc1ncn2c(C(F)(F)F)csc12 [Example 29, 2-imidazo[1,2-a]pyridin-2-yl-N-[3-(trifluoromethyl)imidazo[5,1-b][1,3]thiazol-7-yl]acetamide]",100 to 499 nM
6,"O=C(Cc1cncnc1)Nc1ncn2c(C(F)(F)F)csc12 [Example 32, 2-pyrimidin-5-yl-N-[3-(trifluoromethyl)imidazo[5,1-b][1,3]thiazol-7-yl]acetamide]",100 to 499 nM

# Same assay, conditions: '<50 nM'; 5 uM ATP, 0.3 nM CDK5-p25; read-out: IC50 potency, CDK5-p25 kinase enzymatic assay, <50 nM
row,Structure (SMILES),IC50
1,"O=C(Cc1ccc(N2CCOC2=O)cc1)Nc1ncn2c(C(F)(F)F)csc12 [Example 1, 2-[4-(2-Oxo-1,3-oxazolidin-3-yl)phenyl]-N-[3-(trifluoromethyl)imidazo[5,1-b][1,3]thiazol-7-yl]acetamide]",< 50 nM
2,"O=C(Cc1ccc2ccccc2c1)Nc1ncn2c(C(F)(F)F)csc12 [Example 2, 2-(2-naphthyl)-N-[3-(trifluoromethyl)imidazo[5,1-b][1,3]thiazol-7-yl]acetamide]",< 50 nM
3,"O=C(Cc1ccc2ncccc2c1)Nc1ncn2c(C(F)(F)F)csc12 [Example 3, 2-quinolin-6-yl-N-[3-(trifluoromethyl)imidazo[5,1-b][1,3]thiazol-7-yl]acetamide]",< 50 nM
4,"O=C(Cc1ccc2ccncc2c1)Nc1ncn2c(C(F)(F)F)csc12 [Example 4, 2-isoquinolin-7-yl-N-[3-(trifluoromethyl)imidazo[5,1-b][1,3]thiazol-7-yl]acetamide]",< 50 nM
5,"O=C(Cc1ccc2cnccc2c1)Nc1ncn2c(C(F)(F)F)csc12 [Example 5, 2-isoquinolin-6-yl-N-[3-(trifluoromethyl)imidazo[5,1-b][1,3]thiazol-7-yl]acetamide]",< 50 nM
6,"COc1ccc2cc(CC(=O)Nc3ncn4c(C(F)(F)F)csc34)ccc2c1 [Example 6, 2-(6-methoxy-2-naphthyl)-N-[3-(trifluoromethyl)imidazo[5,1-b][1,3]thiazol-7-yl]acetamide]",< 50 nM
7,"O=C(Cc1ccc(Cl)nc1)Nc1ncn2c(C(F)(F)F)csc12 [Example 7, 2-(6-chloropyridin-3-yl)-N-[3-(trifluoromethyl)imidazo[5,1-b][1,3]thiazol-7-yl]acetamide]",< 50 nM
8,"COc1ccc2ccc(CC(=O)Nc3ncn4c(C(F)(F)F)csc34)cc2c1 [Example 9, 2-(7-methoxy-2-naphthyl)-N-[3-(trifluoromethyl)imidazo[5,1-b][1,3]thiazol-7-yl]acetamide]",< 50 nM
9,"O=C(Cc1ccc(-c2cccnc2)cc1)Nc1ncn2c(C(F)(F)F)csc12 [Example 11, 2-(4-pyridin-3-ylphenyl)-N-[3-(trifluoromethyl)imidazo[5,1-b][1,3]thiazol-7-yl]acetamide]",< 50 nM
10,"O=C(Cc1ccc2cccnc2c1)Nc1ncn2c(C(F)(F)F)csc12 [Example 13, 2-quinolin-7-yl-N-(3-(trifluoromethyl)imidazo[5,1-b][1,3]thiazol-7-yl]acetamide]",< 50 nM
11,"COc1cccc2cc(CC(=O)Nc3ncn4c(C(F)(F)F)csc34)ccc12 [Example 14, 2-(5-methoxy-2-naphthyl)-N-[3-(trifluoromethyl)imidazo[5,1-b][1,3]thiazol-7-yl]acetamide]",< 50 nM
12,"O=C(Cc1ccc(-c2cn[nH]c2)cc1)Nc1ncn2c(C(F)(F)F)csc12 [Example 16, 2-[4-(1H-pyrazol-4-yl)phenyl]-N-(3-(trifluoromethyl)imidazo[5,1-b][1,3]thiazol-7-yl]acetamide]",< 50 nM
13,"O=C(Cc1ccc(-c2cc[nH]n2)cc1)Nc1ncn2c(C(F)(F)F)csc12 [Example 19, 2-[4-(1H-pyrazol-3-yl)phenyl]-N-[3-(trifluoromethyl)imidazo[5,1-b][1,3]thiazol-7-yl]acetamide]",< 50 nM
14,"O=C(Cc1cccc(-c2cn[nH]c2)c1)Nc1ncn2c(C(F)(F)F)csc12 [Example 24, 2-[3-(1H-pyrazol-4-yl)phenyl]-N-[3-(trifluoromethyl)imidazo[5,1-b][1,3]thiazol-7-yl]acetamide]",< 50 nM
